Test results taken from US20180148418A1, “AMIDO-SUBSTITUTED CYCLOHEXANE DERIVATIVES” (Bayer Pharma Aktiengesellschaft, priority 2015, published 2018).

Tests used:
[1] = system: HEK293 cells cotransfected with the FOP control vector; assay: HEK293 FOP assay (control reporter with non-functional TCF elements); assay type: cell-based; settings: Homo sapiens, 16 hours
How it was run: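 Stable HEK293 line carrying FOP control reporter (randomized non-functional TCF sites, with pcDNA3), Geneticin-selected, plated 24 h before assay. Stimulated with recombinant human Wnt-3a (2500-5 ng/ml) and compounds 50 μM–15 nM (3.16-fold steps) in CAFTY buffer pH 7.4 with 2 mM Ca2+, 0.01% BSA, run parallel to TOP line.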

TNKS2 = molecular target: T1, TNKS2 (Homo sapiens, UniProt Q9H2K2); assay: TNKS2 Assay B (auto-parsylation, [3H]-NAD+ SPA); assay type: biochemical; settings: 6 nM TNKS2, auto-parsylation, over night at room temperature
T1 construct: purchased BPS Bioscience, San Diego, USA 80572 (TNKS2 Histone Ribosylation Assay Kit)
T1 sequence (Q9H2K2 1-1166): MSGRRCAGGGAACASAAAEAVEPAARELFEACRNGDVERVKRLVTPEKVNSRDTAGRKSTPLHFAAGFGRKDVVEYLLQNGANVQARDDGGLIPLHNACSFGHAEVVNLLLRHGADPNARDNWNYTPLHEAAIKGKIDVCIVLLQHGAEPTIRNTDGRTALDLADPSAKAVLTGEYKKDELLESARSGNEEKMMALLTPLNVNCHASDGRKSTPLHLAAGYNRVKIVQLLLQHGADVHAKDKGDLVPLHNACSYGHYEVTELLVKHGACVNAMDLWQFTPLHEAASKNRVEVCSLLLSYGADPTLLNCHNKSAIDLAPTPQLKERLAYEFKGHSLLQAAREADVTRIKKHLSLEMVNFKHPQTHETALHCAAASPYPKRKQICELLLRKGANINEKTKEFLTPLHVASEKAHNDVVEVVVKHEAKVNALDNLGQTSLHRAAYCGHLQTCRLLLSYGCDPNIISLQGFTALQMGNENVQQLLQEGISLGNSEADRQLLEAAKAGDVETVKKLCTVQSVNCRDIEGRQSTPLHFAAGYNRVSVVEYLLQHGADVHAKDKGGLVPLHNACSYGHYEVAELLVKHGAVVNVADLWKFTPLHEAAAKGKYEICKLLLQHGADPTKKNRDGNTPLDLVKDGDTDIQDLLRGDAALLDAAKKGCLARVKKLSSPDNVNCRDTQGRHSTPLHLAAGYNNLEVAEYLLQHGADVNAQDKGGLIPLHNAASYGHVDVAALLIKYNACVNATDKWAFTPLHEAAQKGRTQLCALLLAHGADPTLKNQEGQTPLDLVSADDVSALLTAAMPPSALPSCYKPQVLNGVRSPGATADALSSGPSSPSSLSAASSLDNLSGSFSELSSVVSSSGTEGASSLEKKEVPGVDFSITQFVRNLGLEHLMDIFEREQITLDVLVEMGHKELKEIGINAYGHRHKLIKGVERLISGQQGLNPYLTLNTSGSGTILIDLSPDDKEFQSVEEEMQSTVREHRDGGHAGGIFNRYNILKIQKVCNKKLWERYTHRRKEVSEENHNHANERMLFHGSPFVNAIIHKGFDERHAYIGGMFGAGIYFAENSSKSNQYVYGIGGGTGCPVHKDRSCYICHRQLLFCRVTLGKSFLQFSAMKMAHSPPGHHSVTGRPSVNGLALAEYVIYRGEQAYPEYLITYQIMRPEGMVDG

SMILES | IC50 (TNKS2) [nM] | IC50 [1] [µM]
CC(C)NC(=O)c1nc[nH]c1C(=O)N[C@H]1CC[C@@]2(CCN(c3cccc(Cl)c3)C2=O)CC1 [Example 278, N^5-[(trans)-2-(3-chlorophenyl)-1-oxo-2-azaspiro[4.5]dec-8-yl]-N^4-(propan-2-yl)-1H-imidazole-4,5-dicarboxamide] | 170 | ≥ 50
C[C@]1(C(=O)Nc2ccc(F)cc2Cl)CC[C@@H](NC(=O)c2cnn3cccnc23)CC1 [Example 180, N-{cis-4-[(2-chloro-4-fluorophenyl)carbamoyl]-4-methylcyclohexyl}pyrazolo[1,5-a]pyrimidine-3-carboxamide] | > 10000 | ≥ 50
CC1CCN(CCNC(=O)c2nc[nH]c2C(=O)N[C@H]2CC[C@@]3(CCN(c4ccccc4Cl)C3=O)CC2)CC1 [Example 260, N^5-[(trans)-2-(2-chlorophenyl)-1-oxo-2-azaspiro[4.5]dec-8-yl]-N^4-[2-(4-methylpiperidin-1-yl)ethyl]-1H-imidazole-4,5-dicarboxamide] | 1.7 | ≥ 50
CC(C)NC(=O)c1nc[nH]c1C(=O)N[C@H]1CC[C@H](C(=O)Nc2ccc(F)cc2Cl)CC1 [Example 20, N^5-{trans-4-[(2-chloro-4-fluorophenyl)carbamoyl]cyclohexyl}-N^4-isopropyl-1H-imidazole-4,5-dicarboxamide] | 130 | ≥ 50
O=C(N[C@H]1CC[C@@]2(CCN(c3cccc(Cl)c3)C2=O)CC1)c1[nH]cnc1C(=O)N1CC(F)C1 [Example 280, N-[(trans)-2-(3-chlorophenyl)-1-oxo-2-azaspiro[4.5]dec-8-yl]-4-[(3-fluoroazetidin-1-yl)carbonyl]-1H-imidazole-5-carboxamide] | 94 | ≥ 50
O=C(N[C@H]1CC[C@H](C(=O)Nc2ccc(F)cc2Cl)CC1)c1[nH]cnc1C(=O)N1CC2(COC2)C1 [Example 14, N-{trans-4-[(2-chloro-4-fluorophenyl)carbamoyl]cyclohexyl}-4-(2-oxa-6-azaspiro[3.3]hept-6-ylcarbonyl)-1H-imidazole-5-carboxamide] | 37 | ≥ 50

Second part, led by results:

IC50 (TNKS2) [nM] | SMILES | IC50 [1] [µM]
290 | CNC(=O)c1[nH]cnc1C(=O)N[C@H]1CC[C@@]2(CCN(c3ccc(F)cc3)C2=O)CC1 [Example 212, N^4-[(trans)-2-(4-fluorophenyl)-1-oxo-2-azaspiro[4.5]dec-8-yl]-N^5-methyl-1H-imidazole-4,5-dicarboxamide] | 38
1000 | CNC(=O)c1nc[nH]c1C(=O)N[C@H]1CC[C@]2(CCN(c3ccc(F)cc3Cl)C2=O)CC1 [Example 182, N^5-[(cis)-2-(2-chloro-4-fluorophenyl)-1-oxo-2-azaspiro[4.5]dec-8-yl]-N^4-methyl-1H-imidazole-4,5-dicarboxamide] | ≥ 50
11 | Cc1cc(C(F)F)n2ncc(C(=O)N[C@H]3CC[C@@]4(CCN(c5ccc(F)cc5Cl)C4=O)CC3)c2n1 [Example 224, N-[(trans)-2-(2-chloro-4-fluorophenyl)-1-oxo-2-azaspiro[4.5]dec-8-yl]-7-(difluoromethyl)-5-methylpyrazolo[1,5-a]pyrimidine-3-carboxamide] | ≥ 50
4 | CNC(=O)c1nc[nH]c1C(=O)N[C@H]1CC[C@@]2(CCN(c3ccccc3Cl)C2=O)CC1 [Example 264, N^5-[(trans)-2-(2-chlorophenyl)-1-oxo-2-azaspiro[4.5]dec-8-yl]-N^4-methyl-1H-imidazole-4,5-dicarboxamide] | 33
1.7 | CN1CC2(C1)CN(C(=O)c1nc[nH]c1C(=O)N[C@H]1CC[C@@]3(CCN(c4ccc(F)cc4Cl)C3=O)CC1)C2 [Example 185, N-[(trans)-2-(2-chloro-4-fluorophenyl)-1-oxo-2-azaspiro[4.5]dec-8-yl]-4-[(6-methyl-2,6-diazaspiro[3.3]hept-2-yl)carbonyl]-1H-imidazole-5-carboxamide] | ≥ 50
